Legend:
Bladder Tissue = assay: Smooth muscle (bladder) relaxing activity: inhibition of KCl-enhanced contractile activity of isolated rat bladder strips; type: cell-based, Sprague-Dawley rats; conditions: for Bladder Tissue, I = percent inhibition of contractile activity / IC50 / inhibition at 30 µM: rat bladder strips, additional 15 mM KCl; for Bladder Tissue, I = percent inhibition of contractile activity / inhibition at 30 µM: percent inhibition at 30 μM (footnote *); for IC50: 50% inhibition of pre-drug contractile activity; for Ratio Aorta IC50 / Bladder IC50: selectivity for bladder over aorta tissue, rat; for inhibition at 30 µM: read-out: Bladder Tissue, I = percent inhibition of contractile activity
Protocol: The smooth muscle (bladder) relaxing activity of the compounds of this invention was established in accordance with standard pharmaceutically accepted test procedures with representative compounds as follows:
Sprague-Dawley rats (150-200 g) are rendered unconscious by CO2 asphyxiation and then euthanized by cervical dislocation. The bladder is removed into warm (37° C.) physiological salt solution (PSS) of the following composition (mM): NaCl, 118.4; KCl, 4.7; CaCl2, 2.5; […]; NaHCO3, 24.9; KH2PO4, 1.2; glucose, 11.1; EDTA, 0.023; gassed with […]; pH 7.4. The bladder is opened and then cut into strips 1-2 mm in width and 7-10 mm in length. The strips are subsequently suspended in a 10 mL tissue bath under an initial resting tension of 1.5 g. The strips are held in place by two surgical clips one of which is attached to a fixed hook while the other is attached to an isometric force transducer. […] The carbachol is then washed out and the tissue allowed to relax to its resting level of activity. Following a further 30 min. period of recovery an additional 15 mM KCl are introduced into the tissue bath. This increase in KCl concentration results in a large increase in the amplitude of spontaneous contractions (and initiation of contractions in previously quiescent strips) superimposed upon a small increase in basal tone. Following stabilization of this enhanced level .of contractile activity, incremental increases in the concentration of test compound or vehicle are introduced into the tissue bath. Contractile activity is measured for each compoundor vehicle concentration during the last minute of a 30 minute challenge.
The isometric force developed by the bladder strips is measured using a […] to elicit 50% inhibition of pre-drug contractile activity (IC50 concentration) and is calculated from this concentra-tion-response curve.

Aorta Tissue = assay: Smooth muscle (aorta) relaxing activity: inhibition of KCl-evoked contracture of isolated rat thoracic aorta rings; type: cell-based, Sprague-Dawley rats; conditions: 30-35 mM KCl contracture, 50% inhibition of pre-drug contractile force
Source text: The smooth muscle (aorta) relaxing activity of the compounds of this invention was established in accordance with standard pharmaceutically accepted test procedures with representative compounds as follows:
Male Sprague-Dawley rats (150-200 g) are rendered unconscious by CO2 asphyxiation and then euthanized by cervical dislocation. The thoracic aorta is removed into warm (37 deg.C.) physiological salt solution (PSS) of the following composition (mM): NaCl; 118.4; KCl, 4.7; CaCl2, 2.5; MgSO4.7H2O, 1.2; NaHCO3, 24.9; KH2PO4, 1.2; glucose, 11.1; EDTA, 0.023; gassed with 95% O2/5% CO2; pH 7.4. The aorta is cleaned of fat and loose adventitia and cut into rings 3-4 mm in width. The rings are subsequently suspended between two stainless steel wire tissue holders in a 10 ml tissue bath. One wire tissue holder is attached to a fixed hook while the other is attached to an isometric force transducer. Resting tension is set at 1 g. The tissues are to recover for a period of 60 mins. prior to beginning the experiment. Tissues are challenged with PSS containing 25 mM KCl to elicit a contracture. The tissues are then washed repeatedly with fresh PSS over a period of 30 mins. and allowed to recover to baseline tension. PSS containing 30-35 mM KCl is then introduced into the tissue bath to evoke a contracture that is allowed to stabilize for not less than 45 minutes. (Other stimuli such as norepine-phrine, PGF2a, histamine, angiotensin II, endothelin or PSS containing 80 mM KCl may also be used to evoke a contracture as necessary). Increasing concentrations of test compound or vehicle are then added to the tissue bath in a cumulative fashion.
Isometric force development by the aortic rings is measured using a force transducer and recorded on a polygraph. The percentage inhibition of contractile force evoked by each concentration of a given test compound is used to generate a concentration-response curve. The concentration of test compound required to elicit 50% inhibition of pre-drug contractile force (IC50 concentration) is calculated from this dose-response curve. (Log concentration versus response curves are approximately linear between 20% and 80% of the maximum response. As such, the IC50 concentration of the drug is determined by linear regression analysis (where x=log concentration and y=% inhibition) of the data points in the 20% to 80% region of the curve]. The maximum percentage inhibition of contractile force evoked by a test compound is also recorded for concentrations of test compound < or = to 30 μM. Data collected from 2 animals are averaged for primary screens.

| Molecule | IC50 (Bladder Tissue) [µM] | melting point | inhibition at 30 µM (Bladder Tissue) [%] | further results |
| --- | --- | --- | --- | --- |
| 3-(1,1-Dimethyl-2-phenyl-ethylamino)-4-(3-methoxy-phenyl)-cyclobut-3-ene-1,2-dione [Example 25] | – | – | – | Bladder Tissue, I = percent inhibition of contractile activity (Bladder Tissue): 1 = 30.35% |
| COc1ccc(-c2c(NC(C)(C)Cc3ccccc3)c(=O)c2=O)cc1 [Example 1, 3-(1,1-Dimethyl-2-phenyl-ethylamino)-4-(4-methoxy-phenyl)-cyclobut-3-ene-1,2-dione] | 1.2 | 150 to 151 °C | – | Ratio Aorta IC50 / Bladder IC50 (Bladder Tissue): 2.71; IC50 (Aorta Tissue): 3.25 ± 0.35 µM |
| CCC(C)(C)Nc1c(-c2ccc(OC)cc2)c(=O)c1=O [Example 2, 3-(1,1-Dimethyl-propylamino)-4-(4-methoxy-phenyl)-cyclobut-3-ene-1,2-dione] | 2.5 | 133 to 135 °C | – | Ratio Aorta IC50 / Bladder IC50 (Bladder Tissue): 15.1; IC50 (Aorta Tissue): 37.6 ± 6.05 µM |
| COc1ccc(-c2c(N(C)C(C)C)c(=O)c2=O)cc1 [Example 3, 3-(Isopropyl-methyl-amino)-4-(4-methoxy-phenyl)-cyclobut-3-ene-1,2-dione] | 12 | 109 to 115 °C | – | Ratio Aorta IC50 / Bladder IC50 (Bladder Tissue): 3.85; IC50 (Aorta Tissue): 46.2 ± 7.8 µM |
| COc1ccc(-c2c(NC(C)C(C)(C)C)c(=O)c2=O)cc1 (stereo not drawn) [Example 4, 3-(4-Methoxy-phenyl)-4-(1,2,2-trimethyl-propylamino)-cyclobut-3-ene-1,2-dione] | 9.51 | 179 to 181 °C | – | Ratio Aorta IC50 / Bladder IC50 (Bladder Tissue): 2.56; IC50 (Aorta Tissue): 24.2 ± 6.3 µM |
| COc1ccc(-c2c(NCCc3cccc(C(F)(F)F)c3)c(=O)c2=O)cc1 [Example 5, 3-(4-Methoxy-phenyl)-4-[2-(3-trifluoromethyl-phenyl)-ethylamino]-cyclobut-3-ene-1,2-dione] | – | 220.2 to 222.3 °C | 9.75 | – |
| COc1ccc(-c2c(N[C@H](C)c3ccccc3)c(=O)c2=O)cc1 [Example 6, (−)-3-(4-Methoxy-phenyl)-4-((R)-1-phenyl-ethylamino)-cyclobut-3-ene-1,2-dione] | 26.9 | 158.7 to 160.1 °C | – | – |
| COc1ccc(-c2c(NCC(C)c3ccccc3)c(=O)c2=O)cc1 (stereo not drawn) [Example 7, 3-(4-Methoxy-phenyl)-4-(2-phenyl-propylamino)-cyclobut-3-ene-1,2-dione] | – | 215.4 to 216.2 °C | 7.4 | – |
| COc1ccc(-c2c(NCCc3ccc(C(C)(C)C)cc3)c(=O)c2=O)cc1 [Example 8, 3-[2-(4-tert-Butyl-phenyl)-ethylamino]-4-(4-methoxy-phenyl)-cyclobut-3-ene-1,2-dione] | 11.2 | 258.1 to 260.2 °C | – | – |
| CC(Nc1c(-c2ccc(C#N)cc2)c(=O)c1=O)C(C)(C)C (stereo not drawn) [Example 9, 4-[3,4-Dioxo-2-(1,2,2-trimethyl-propylamino)-cyclobut-1-enyl]benzonitrile] | – | – | 27.2 | – |
| CC(Nc1c(-c2ccc(C(F)(F)F)cc2)c(=O)c1=O)C(C)(C)C (stereo not drawn) [Example 10, 3-(4-Trifluoromethyl-phenyl)-4-(1,2,2-trimethyl-propylamino)-cyclobut-3-ene-1,2-dione] | 15.6 | – | – | – |
| CCC(C)(C)Nc1c(-c2ccc(C(F)(F)F)cc2)c(=O)c1=O [Example 11, 4-(4Trifluoromethyl-phenyl)-3-(1,1-dimethyl-propylamino)-cyclobut-3-ene-1,2-dione] | – | 115.4 to 119 °C (dec.) | 34.2 | – |
| CCC(C)(C)Nc1c(-c2cccnc2)c(=O)c1=O.Cl [Example 12, 3-(1,1-Dimethyl-propylamino)-4-(pyridin-3-yl)-cyclobut-3-ene-1,2-dione Hydrochloride] | – | 152 to 155.9 °C (dec.) | 26 | – |
| CC(=O)C(c1ccc(C(F)(F)F)cc1)c1c(NC(C)C(C)(C)C)c(=O)c1=O (stereo not drawn) [Example 21, 3-[2-Oxo-1-(4-trifluoromethyl-phenyl)-propyl]-4-(1,2,2-trimethyl-propylamino)-cyclobut-3-ene-1,2-dione] | 16.2 | – | – | – |
| CC(Nc1c(-c2ccc(Br)cc2)c(=O)c1=O)C(C)(C)C (stereo not drawn) [Example 22, 3-(4-Bromo-phenyl)-4-(1,2,2-trimethyl-propylamino)-cyclobut-3-ene-1,2-dione] | 25.7 | 210.6 to 211.3 °C | – | – |
| COc1ccc(Cc2c(NC(C)C(C)(C)C)c(=O)c2=O)cc1.COc1ccc(Cc2c(NC(C)C(C)(C)C)c(=O)c2=O)cc1.COc1ccc(Cc2c(NC(C)C(C)(C)C)c(=O)c2=O)cc1.COc1ccc(Cc2c(NC(C)C(C)(C)C)c(=O)c2=O)cc1.O (stereo not drawn) [Example 23, 3-(4-Methoxy-benzyl)-4-(1,2,2-trimethyl-propylamino)-cyclobut-3-ene-1,2-dione One-quarter Hydrate] | – | – | – | Bladder Tissue, I = percent inhibition of contractile activity (Bladder Tissue): 1 = 10.2% |
| COc1ccc(C(C(C)=O)c2c(N(C(=O)OC(C)(C)C)C(C)C(C)(C)C)c(=O)c2=O)cc1 (stereo not drawn) [Example 24] | 15.9 | – | – | – |
| CC(Nc1c(/C=C/c2ccc(Br)cc2)c(=O)c1=O)C(C)(C)C (stereo not drawn) [Example 26, 3-[(E)-2-(4-Bromo-phenyl)-vinyl]-4-(1,2,2-trimethyl-propylamino)-cyclobut-3-ene-1,2-dione] | – | – | 15.6 | – |
| CC(Nc1c(/C=C/c2ccc(C#N)cc2)c(=O)c1=O)C(C)(C)C (stereo not drawn) [Example 27, 4-{(E)-2-[3,4-Dioxo-2-(1,2,2-trimethyl-propylamino)-cyclobut-1-enyl]-vinyl}-benzonitrile] | 2.94 | 240.2 to 241 °C | – | – |

— patent US6465523B1, “4-substituted-3-substituted-amino-cyclobut-3-ene-1,2-diones and analogs thereof as novel potassium channel openers” (American Home Products, priority 1998, dated 2002)
